Measured values as given in PubChem BioAssay (NCI).
Values joined by “and” are separate entries in the source; they are usually repeats but may differ in a detail not shown here. Identical values can stand only once.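 Results reflect a 48-hour exposure of cells in 96-well plates to compound at five concentrations. GI50 = concentration required for 50% inhibition of growth. TGI marks complete inhibition of growth.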

Columns and labels:
Assay in all cases: growth of human tumour cells (NCI), 48 h
ACHN renal = test system: ACHN renal
LOX IMVI melanoma = test system: LOX IMVI melanoma
SNB-75 CNS = test system: SNB-75 CNS
SNB-19 CNS = test system: SNB-19 CNS
MALME-3M melanoma = test system: MALME-3M melanoma
U251 CNS = test system: U251 CNS
UO-31 renal = test system: UO-31 renal
RPMI-8226 leukemia = test system: RPMI-8226 leukemia
KM12 colon = test system: KM12 colon
RXF 393 renal = test system: RXF 393 renal

SMILES	GI50 (ACHN renal) [µM]	TGI (ACHN renal) [µM]	GI50 (LOX IMVI melanoma) [µM]	TGI (LOX IMVI melanoma) [µM]	GI50 (SNB-75 CNS) [µM]	TGI (SNB-75 CNS)	GI50 (SNB-19 CNS) [µM]	TGI (SNB-19 CNS) [µM]	GI50 (MALME-3M melanoma) [µM]	TGI (MALME-3M melanoma) [µM]	GI50 (U251 CNS) [µM]	TGI (U251 CNS) [µM]	GI50 (UO-31 renal) [µM]	TGI (UO-31 renal) [µM]	GI50 (RPMI-8226 leukemia)	TGI (RPMI-8226 leukemia) [µM]	GI50 (KM12 colon) [µM]	TGI (KM12 colon) [µM]	GI50 (RXF 393 renal) [µM]	TGI (RXF 393 renal) [µM]
Cc1ccc2c(c1)C(=O)c1c-2n(CCCN)c(=O)c2cc([N+](=O)[O-])ccc12	0.106	0.609	0.177	0.829	0.385	1.07 µM	0.178	0.706	0.752	1.71	0.124	0.832	0.144	0.811	0.0199 µM	0.226	0.433	1.23	0.627	1.31
COc1ccc(-c2oc(=O)ccc2C#Cc2cc(OC)c(OC)c(OC)c2)cc1O	11.6	44.3	24.2	> 100	20.8	69.9 µM	31.4	> 100	71.8	> 100	13.5	50.6	30.9	> 100	10.9 µM	35.1	50	> 100	10.9	31.9
COc1ccc2c(c1)CCC1C2CC[C@@]2(C)C1CC[C@@]2(O)CNC(=O)/C=C/c1ccc(O)c(OC)c1 (some centres not stated)	17.5	46.7	7.76	20.5	26.6	> 100 µM	27.8	> 100	21.3	> 100	19	76.6	10.3	> 100	6.47 µM	53.9	4.77	> 100	21.1	78.6
CC#C[C@@]1(O)CCCC[C@@H]1O	–	> 100	–	> 100	–	> 100 µM	–	> 100	–	> 100	–	> 100	–	> 100	–	> 100	–	> 100	–	> 100
CC(CN=C(CC(=O)c1ccc(Br)cc1)c1ccccc1)N=C(CC(=O)c1ccc(Br)cc1)c1ccccc1 (configuration not stated)	48	> 100	66.1	> 100	> 100	> 100 µM	> 100	> 100	23.3	> 100	> 100	> 100	1.66	> 100	4.37 µM	38.6	32.3	> 100	5.59	> 100
CC(=O)Oc1ccc(OC(C)=O)c2ccccc12	6.37	19.2	14.8	30.7	14	27.7 µM	30.5	> 100	14	33	13.8	27.2	2.14	16.1	3.85 µM	10.2	10.9	23.4	7.57	20.2
Cc1cc(NS(=O)(=O)c2ccc(Nc3c4ccccc4nc4c(C(=O)Nc5ccc(S(=O)(=O)N=C(N)N)cc5)cccc34)cc2)no1	–	> 100	–	> 100	–	> 100 µM	–	> 100	–	> 100	–	> 100	–	> 100	–	> 100	–	> 100	–	> 100
C=CN1C(=O)OC(c2ccccc2)C1c1ccccc1 (configuration not stated)	> 100	> 100	–	> 100	–	21.9 µM and > 100 µM	> 100	> 100	> 100	> 100	–	> 100	> 100	> 100	> 31.6 µM and 88.6 µM	> 100	> 100	> 100	> 100	> 100
